Assay results reported in patent publication US10203334B2, “Methods and compositions related to nucleic acid binding assays” (Nubad, LLC, priority 2012, dated 2019).

Test system: 16S A-site rRNA (SEQ ID No. 1)
Experiment: Competition dialysis
Format: binding, E. coli
Conditions: 100 nM ligand, 72 h dialysis, pH 7.0
Excerpt: Disclosed is the use of fluorescent aminosugar probes such as F-neo (42a) to probe a variety of nucleic acid targets. Competition dialysis was used as a nucleic acid screening technique to illustrate the binding of F-neo (42a) to different nucleic acid structures.
Competition dialysis studies using a fluorescein-neomycin conjugate (F-neo (42a)). […] Comparative binding of F-neo (42a) to 13 different nucleic acid structures was examined which included single strand nucleic acids [poly(dT), poly(A), poly(U)], duplexes [poly(dA).poly(dT), poly(rA).poly(dT), poly(rA).poly(rU), poly(dA).poly(rU), poly(dG).poly(dC), calf thymus], triplexes [poly(dA).2poly(dT), poly(rA).2poly(rU)], i-motif (polydC) and 16S A-site rRNA (SEQ ID No. 1). The amount of F-neo (42a) bound to each nucleic acid is shown as a bar graph in FIG. 13. Because all nucleic acids are dialyzed simultaneously in the same ligand solution, the amount of bound F-neo (42a) is directly proportional to its affinity for each nucleic acid. […] 200 μL of different nucleic acids (7.5 μM per monomeric unit of each polymer) was dialyzed for 72 h with 400 mL 100 nM ligand in 6 mM Na2HPO4, 2 mM NaH2PO4, 1 mM Na2EDTA, pH 7.0 and various Na+ concentrations as indicated.
F-neo (42a) prefers to bind to 16S A-site rRNA yielding a bound ligand concentration of 85 nM in 100 mM Na^+, 50 nM in 150 mM Na^+, and 15 nM in 200 mM Na^+ is shown in FIG. 15.

NCC1O[C@H](OC2C(O)C(OC3C(O)[C@H](N)CC(N)[C@H]3O[C@H]3OC(CN)[C@@H](O)C(O)C3N)O[C@@H]2CSCCNC(=O)CCSCC(=O)Nc2ccc(-c3c4ccc(=O)cc-4oc4cc(O)ccc34)c(C(=O)O)c2)C(N)C(O)[C@@H]1O (stereo partly drawn) [F-neo (42a), Neomycin-Fluorescein Conjugate]
bound ligand concentration (100 mM Na^+): 85 nM | bound ligand concentration (150 mM Na^+): 50 nM | bound ligand concentration (200 mM Na^+): 15 nM
